Test [1] concerns nor-1 promoter. The test is classed as cell-based, Aspergillus parasiticus.
Test [2] concerns nor-1 promoter. Format: cell-based, Aspergillus parasiticus. This is another data set of the same source.
Another test deals with aflatoxin biosynthesis. Format: cell-based, Aspergillus parasiticus SU-1.
The next test concerns nor-1 gene. Format: cell-based, Aspergillus parasiticus SU-1.
The next test deals with ipnA promoter. Format: cell-based, Aspergillus nidulans.
For a further test, the system named is tri5 promoter. Format: cell-based, Gibberella zeae.
Another test relates to ver-1 promoter. Description: Transcription from the ver-1 promoter. Format: cell-based, Aspergillus parasiticus.

“Also recorded” adds a separate entry of the source.

`CCCCC/C=C/CCCCCC/C=C/C=C/C(=O)N1CCCCC1` [Cp2]: the “Transcription from the nor-1 promoter” value in the test with nor-1 promoter [1] was “inhibit transcription”. Also, in the test with nor-1 promoter [2], the “Fungus growth on TLC plates” value is “Fungal growth was seen; also recorded: did not inhibit fungus growth” and the “Inhibition of GUS in TLC bioassay” value was “inhibitory properties”. In addition, in the test with aflatoxin biosynthesis, the “Concentration that appeared to completely inhibit biosynthesis of aflatoxin” value was “greater than 26 μg/ml”. Further, the “Amounts of aflatoxins B1 and G1” value in the test with aflatoxin biosynthesis (2.6-78 μg/ml, 48 hours) was “reduction”. Also, in the test with nor-1 gene, the “Transcription of the nor-1 gene” value is reported as “inhibits” and the “nor-1 transcription at lower concentrations” value was “did not completely inhibit”. Also, the “Transcription from the ipnA promoter (GUS)” value in the test with ipnA promoter is recorded as “inhibit transcription; also recorded: inhibited”. In addition, in the test with tri5 promoter, the “Transcription from the tri5 promoter (GUS)” value is listed as “inhibit transcription; also recorded: inhibited”. For the same molecule, in the test on ver-1 promoter, the “Transcription from the ver-1 promoter” value was “inhibit transcription”.

Values taken from patent US7041678B2 (priority 1999, dated 2006).
